What was measured:
Assay in all cases: relative viability (nuclei count vs DMSO), 5 days (fraction); higher = more cells survive
201T = system: 201T
Procedure, shortened: (§1)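 Lung cancer cell lines in 1536-well plates got either a single drug or a fixed anchor-drug dose together with five library-drug doses (not always all listed) in √10 steps, by pin tool, on the day after seeding. Nuclei were counted after 5 days, and relative viability is the treated-to-vehicle ratio of nuclei counts. Values are medians of duplicate plates.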

BEN = system: BEN
Procedure, shortened: as §1

COR-L 105 = system: COR-L 105
Procedure, shortened: as §1

COR-L23 = system: COR-L23
Procedure, shortened: as §1

EKVX = system: EKVX
Procedure, shortened: as §1

HARA = system: HARA
Procedure, shortened: as §1

HCC-15 = system: HCC-15
Procedure, shortened: as §1

HCC-366 = system: HCC-366
Procedure, shortened: as §1

HCC-78 = system: HCC-78
Procedure, shortened: as §1

HCC-827 = system: HCC-827
Procedure, shortened: as §1

LC-2-ad = system: LC-2-ad
Procedure, shortened: as §1

LU99A = system: LU99A
Procedure, shortened: as §1

LXF-289 = system: LXF-289
Procedure, shortened: as §1

NCI-H1650 = system: NCI-H1650
Procedure, shortened: as §1

NCI-H1734 = system: NCI-H1734
Procedure, shortened: as §1

NCI-H1755 = system: NCI-H1755
Procedure, shortened: as §1

NCI-H1944 = system: NCI-H1944
Procedure, shortened: as §1

NCI-H1975 = system: NCI-H1975
Procedure, shortened: as §1

NCI-H1993 = system: NCI-H1993
Procedure, shortened: as §1

NCI-H3122 = system: NCI-H3122
Procedure, shortened: as §1

NCI-H596 = system: NCI-H596
Procedure, shortened: as §1

RERF-LC-KJ = system: RERF-LC-KJ
Procedure, shortened: as §1

SK-LU-1 = system: SK-LU-1
Procedure, shortened: as §1

For `O=C(O)CCCCC(CCSCc1ccccc1)SCc1ccccc1` (centres undefined) [CPI-613] + O=C(CCCCCCC(=O)Nc1ccccc1)NO [Vorinostat] (partner 1 µM), the relative viability (201T; first compound 5 µM) was 0.961, the relative viability (201T; first compound 15.81 µM) was 0.865 and the relative viability (201T; first compound 50 µM) was 0.958. The relative viability (201T; first compound 158.11 µM) was 0.328, the relative viability (201T; first compound 500 µM) was 0.368 and the relative viability (BEN; first compound 5 µM) was 0.491. For the same molecule, the relative viability (BEN; first compound 15.81 µM) was 0.529, the relative viability (BEN; first compound 50 µM) was 0.558 and the relative viability (BEN; first compound 158.11 µM) was 0.593. It also gave a relative viability (BEN; first compound 500 µM) of 0.607, a relative viability (COR-L 105; first compound 5 µM) of 0.765 and a relative viability (COR-L 105; first compound 15.81 µM) of 0.675. For the same molecule, the relative viability (COR-L 105; first compound 50 µM) was 1.04, the relative viability (COR-L 105; first compound 158.11 µM) was 0.375 and the relative viability (COR-L 105; first compound 500 µM) was 0.261. The relative viability (COR-L23; first compound 5 µM) was 0.42, the relative viability (COR-L23; first compound 15.81 µM) was 0.387 and the relative viability (COR-L23; first compound 50 µM) was 0.371. It also gave a relative viability (COR-L23; first compound 158.11 µM) of 0.125, a relative viability (COR-L23; first compound 500 µM) of 0.0123 and a relative viability (EKVX; first compound 5 µM) of 0.695. It also gave a relative viability (EKVX; first compound 15.81 µM) of 0.668, a relative viability (EKVX; first compound 50 µM) of 0.637 and a relative viability (EKVX; first compound 158.11 µM) of 0.258. For the same molecule, the relative viability (EKVX; first compound 500 µM) was 0.429, the relative viability (HARA; first compound 5 µM) was 0.479 and the relative viability (HARA; first compound 15.81 µM) was 0.529. It also gave a relative viability (HARA; first compound 50 µM) of 0.506, a relative viability (HARA; first compound 158.11 µM) of 0.0931 and a relative viability (HARA; first compound 500 µM) of 0.024. The relative viability (HCC-15; first compound 5 µM) was 0.801, the relative viability (HCC-15; first compound 15.81 µM) was 0.774 and the relative viability (HCC-15; first compound 50 µM) was 0.779. It also gave a relative viability (HCC-15; first compound 158.11 µM) of 0.181, a relative viability (HCC-15; first compound 500 µM) of 0.0657 and a relative viability (HCC-366; first compound 5 µM) of 0.371. For the same molecule, the relative viability (HCC-366; first compound 15.81 µM) was 0.314, the relative viability (HCC-366; first compound 50 µM) was 0.291 and the relative viability (HCC-366; first compound 158.11 µM) was 0.0721. For the same molecule, the relative viability (HCC-366; first compound 500 µM) was 0.0058, the relative viability (HCC-78; first compound 15.81 µM) was 0.373 and the relative viability (HCC-78; first compound 50 µM) was 0.361. For the same molecule, the relative viability (HCC-78; first compound 158.11 µM) was 0.393, the relative viability (HCC-78; first compound 500 µM) was 0.479 and the relative viability (HCC-827; first compound 5 µM) was 0.769. The relative viability (HCC-827; first compound 15.81 µM) was 0.703, the relative viability (HCC-827; first compound 50 µM) was 0.773 and the relative viability (HCC-827; first compound 158.11 µM) was 0.497. For the same molecule, the relative viability (HCC-827; first compound 500 µM) was 0.656, the relative viability (LC-2-ad; first compound 5 µM) was 0.624 and the relative viability (LC-2-ad; first compound 15.81 µM) was 0.631. It also gave a relative viability (LC-2-ad; first compound 50 µM) of 0.594, a relative viability (LC-2-ad; first compound 158.11 µM) of 0.0484 and a relative viability (LC-2-ad; first compound 500 µM) of 0.0025. It also gave a relative viability (LU99A; first compound 5 µM) of 0.474, a relative viability (LU99A; first compound 15.81 µM) of 0.408 and a relative viability (LU99A; first compound 50 µM) of 0.466. It also gave a relative viability (LU99A; first compound 158.11 µM) of 0.394, a relative viability (LU99A; first compound 500 µM) of 0.223 and a relative viability (LXF-289; first compound 5 µM) of 0.699. The relative viability (LXF-289; first compound 15.81 µM) was 0.707, the relative viability (LXF-289; first compound 50 µM) was 0.722 and the relative viability (LXF-289; first compound 158.11 µM) was 0.483. For the same molecule, the relative viability (LXF-289; first compound 500 µM) was 0.567, the relative viability (NCI-H1650; first compound 5 µM) was 0.521 and the relative viability (NCI-H1650; first compound 15.81 µM) was 0.469. For the same molecule, the relative viability (NCI-H1650; first compound 50 µM) was 0.507, the relative viability (NCI-H1650; first compound 158.11 µM) was 0.142 and the relative viability (NCI-H1650; first compound 500 µM) was 0.0205. The relative viability (NCI-H1734; first compound 5 µM) was 0.66, the relative viability (NCI-H1734; first compound 15.81 µM) was 0.768 and the relative viability (NCI-H1734; first compound 50 µM) was 0.704. For the same molecule, the relative viability (NCI-H1734; first compound 158.11 µM) was 0.147, the relative viability (NCI-H1734; first compound 500 µM) was 0.107 and the relative viability (NCI-H1755; first compound 5 µM) was 0.736. It also gave a relative viability (NCI-H1755; first compound 15.81 µM) of 0.707, a relative viability (NCI-H1755; first compound 50 µM) of 0.675 and a relative viability (NCI-H1755; first compound 158.11 µM) of 0.577. For the same molecule, the relative viability (NCI-H1755; first compound 500 µM) was 0.608, the relative viability (NCI-H1944; first compound 5 µM) was 0.572 and the relative viability (NCI-H1944; first compound 15.81 µM) was 0.574. The relative viability (NCI-H1944; first compound 50 µM) was 0.496, the relative viability (NCI-H1944; first compound 158.11 µM) was 0.322 and the relative viability (NCI-H1944; first compound 500 µM) was 0.273. It also gave a relative viability (NCI-H1975; first compound 5 µM) of 0.73, a relative viability (NCI-H1975; first compound 15.81 µM) of 0.735 and a relative viability (NCI-H1975; first compound 50 µM) of 0.692. For the same molecule, the relative viability (NCI-H1975; first compound 158.11 µM) was 0.24, the relative viability (NCI-H1975; first compound 500 µM) was 0.0367 and the relative viability (NCI-H1993; first compound 5 µM) was 0.569. The relative viability (NCI-H1993; first compound 15.81 µM) was 0.495, the relative viability (NCI-H1993; first compound 50 µM) was 0.61 and the relative viability (NCI-H1993; first compound 158.11 µM) was 0.404. The relative viability (NCI-H1993; first compound 500 µM) was 0.227, the relative viability (NCI-H3122; first compound 5 µM) was 0.795 and the relative viability (NCI-H3122; first compound 15.81 µM) was 0.89. It also gave a relative viability (NCI-H3122; first compound 50 µM) of 0.961, a relative viability (NCI-H3122; first compound 158.11 µM) of 0.728 and a relative viability (NCI-H3122; first compound 500 µM) of 0.805. It also gave a relative viability (NCI-H596; first compound 5 µM) of 0.471, a relative viability (NCI-H596; first compound 15.81 µM) of 0.621 and a relative viability (NCI-H596; first compound 50 µM) of 0.766. The relative viability (NCI-H596; first compound 158.11 µM) was 0.3, the relative viability (NCI-H596; first compound 500 µM) was 0.061 and the relative viability (RERF-LC-KJ; first compound 5 µM) was 0.607. The relative viability (RERF-LC-KJ; first compound 15.81 µM) was 0.53, the relative viability (RERF-LC-KJ; first compound 50 µM) was 0.631 and the relative viability (RERF-LC-KJ; first compound 158.11 µM) was 0.415. The relative viability (RERF-LC-KJ; first compound 500 µM) was 0.344, the relative viability (SK-LU-1; first compound 5 µM) was 0.773 and the relative viability (SK-LU-1; first compound 15.81 µM) was 0.65. For the same molecule, the relative viability (SK-LU-1; first compound 50 µM) was 0.648, the relative viability (SK-LU-1; first compound 158.11 µM) was 0.206 and the relative viability (SK-LU-1; first compound 500 µM) was 0.11.
